Laboratory results as given in US20060189519A1, “Anti-angiogenic fragments fo pigment epithelium-derived factor (pedf)” (priority 2002, published 2006).

Legend:
[1] = tested on: bFGF-induced corneal angiogenesis; assay: Mouse corneal neovascularization assay (bFGF pellet); assay type: in vivo; details: for Positive comeas/total: bFGF 50 ng/pellet, day 5 after implantation; for effect on mouse corneal neovascularization in vivo: bFGF pellet, peptides at 10 and 100 μM
Experimental: Angiogenesis was induced in the mouse cornea by implanting slow release pellets containing bFGF (50 ng/pellet). Peptides at 10 and 100 μM were added where indicated. Angiogenesis was observed on day 5 after implantation and a vigorous ingrowth of the blood vessels reaching the pellet was scored as a positive response. The peptide abbreviations are as above; PBS is phosphate buffer solution.

[2] = tested on: Microvascular endothelial cells (HMVECs); assay: VEGF-induced endothelial cell chemotaxis/migration assay (Boyden chamber); assay type: cell-based, human; details: at 100 nM (44-mer: 100 nM or higher)
Experimental: FIG. 3. In vitro anti-angiogenic activity by […] and 44-mer PEDF peptides. Microvascular endothelial cells (HMVECs) chemotaxis up the gradient of pro-angiogenic VEGF was examined in the presence of the 44-mer or 34-mer. FIG. 3A Recombinant PEDF (rPEDF, BH) (10 nM), 34-mer (1 μM) and 44-mer (1 μM) were tested alone (empty bars), or in the presence of VEGF (hatched bars). Anti-PEDF neutralizing antibodies were added where shown (filled bars). FIG. 3B 34-mer (●) and 44-mer (♦) were tested with VEGF (100 pg/ml) at increasing concentrations. ED50 was determined using regression curves.
Two large peptides from PEDF, a “34-mer” (amino acids 24-57 of SEQ ID NO:1) and a “44-mer” (residues 58-101 of SEQ ID NO:1), were tested for their ability to block angiogenesis. […] (Alberdi et al., 1999) In the anti-angiogenesis assays, only the 34-mer inhibited VEGF-induced angiogenesis in vitro. Anti-angiogenic activity of the 34-mer peptide was blocked with neutralizing antibodies effective against the whole molecule.
HUVEC migration assay are performed as previously described (Good et al., PNAS, 1990). […] Then, the stained membranes are dried, mounted, and the cells migrated to the top part of membrane counted in 10 high-powered (400×) fields. […]

HUVECs = assay: Endothelial cell apoptosis assay (TUNEL, ApopTag); assay type: cell-based, human; details: for induction of endothelial cell apoptosis: in vitro, low serum (0.2%)
Experimental: FIG. 5. Endothelial cell apoptosis induced by TGA and ERT-L PEDF peptides. 90% confluent HUVECs were treated with increasing concentrations of TGA (FIG. 5A) or ERT-L (FIG. 5B). Apoptotic cells were detected with ApopTag assay kit (Intergen) and percent of TUNEL positive cells calculated.
Apoptosis by PEDF and by the 34-mer were mediated by the same signaling events including activation of JNK-1. Apoptosis by both PEDF and by its 34-mer fragment were abolished in the presence of JNK-1 specific inhibitor SP600125 (BioMol). […] The 44-mer had no activity.
Cells were plated on gelatinized glass cover slips in 24-well tissue culture plates at 5×10^4 cells/well, treated with indicated compounds in low serum (0.2%), fixed in 1% buffered paraformaldehyde, stained using the ApopTag in situ cell death detection kit according to the manufacturer's instructions (Serologicals corporation) and counterstained with propidium iodide. The percentage of terminal deoxynucleotidyl transferase-mediated dUTP nick end labeling (TUNEL)-positive cells was calculated as the number of TUNEL-positive cells (counted in 2-6 randomly selected fields from two different chambers) divided by the total number of cells. 600-1200 cells were scored for each treatment.
Human umbilical vein endothelial cells (HUVEC, NCI) were grown to 90% confluence and treated with peptides overnight in low (0.2%) serum. Apoptotic cells were detected using TUNEL assay kit (InterGene) and percent apoptotic cells were calculated (FIG. 5).

[3] = tested on: Y-79 retinoblastoma cells; details: previously shown (Alberdi et al., 1999); cited from earlier work
[4] = tested on: endothelial cells (HUVEC); assay: Endothelial cell migration up the gradient of pro-angiogenic bFGF; assay type: cell-based, human
Experimental: HUVEC migration assay are performed as previously described (Good et al., PNAS, 1990). The cells are starved overnight in MCDB131 medium supplemented with 0.1% bovine serum albumin (BSA, Sigma) and placed at 1.5 10^6 cells/ml in the bottom part of a 48-well modified Boyden chambers (Neuroprob Corp.), separated from the top part by gelatinized micro porous membrane (8 μm pore size, Nucleopor/Whatman). The inverted chambers are incubated for 1.5 h for the cells to attach. The chamber are then re-inverted, test substances added to the top part of the top well and incubated for additional 3h30 to allow migration. The chamber are disassembled, the membranes fixed, the cells visualized using Diff-Quick staining kit (Fisher). Then, the stained membranes are dried, mounted, and the cells migrated to the top part of membrane counted in 10 high-powered (400×) fields. MCDB131 containing 0.1% BSA, is used as a negative control and 10 ng/ml bFGF as a positive control. Each substance is tested in quadruplicate to allow statistical evaluation of the data within a single experiment. Each experiment is repeated 3 times to ensure the reproducibility.
The peptides were tested in vitro for their ability to block endothelial cell migration up the gradient of pro-angiogenic bFGF.

| Substance | Positive comeas/total ([1]; peptide 10 μM) | Positive comeas/total ([1]; peptide 100 μM) | inhibition of VEGF-induced endothelial cell chemotaxis [2] | induction of endothelial cell apoptosis (HUVECs) | binding to and differentiation of Y-79 retinoblastoma cells [3] | effect on mouse corneal neovascularization in vivo [1] | ability to block endothelial cell migration up the gradient of bFGF [4] | dose at which maximal apoptosis effect is reached (HUVECs; cultured endothelial cells) |
| --- | --- | --- | --- | --- | --- | --- | --- | --- |
| acetyl-SSPDIHGTYKE-amide (Ac-SSPDIHGTYKE-NH2) [PEDF residues 94-104] | 6/6 | 4/4 |  |  |  |  |  |  |
| 44-mer: PEDF peptide, residues 58-101 of SEQ ID NO:1, previously shown to have neurotrophic activity (VLLSPLSVATALSALSLGAEQRTESIIHRALYYDLISSPDIHGT; listed as Homo sapiens) [reference compound] |  |  | no inhibitory activity | no activity | bind to and induce differentiation |  |  |  |
| acetyl-ERTESIIHRALYYDLIS-amide (Ac-ERTESIIHRALYYDLIS-NH2) [ERT-L, PEDF residues 78-94] | 2/6 | 1/5 |  | induced apoptosis |  | blocked mouse corneal neovascularization | showed anti-angiogenic activity |  |
| DPFFKVPVNKLAAAVSNFGYDLYRVRSSMSPTTN [34-mer] |  |  | inhibited |  |  |  |  | 100 nM |
| acetyl-ERTESIIHRAL-amide (Ac-ERTESIIHRAL-NH2) [ERT-S, PEDF residues 78-88] | 5/6 | 4/6 |  |  |  |  |  |  |
| acetyl-TGALVEEEDPF-amide (Ac-TGALVEEEDPF-NH2) [PEDF residues 16-26] | 4/6 | 2/6 |  | induced apoptosis |  | blocked mouse corneal neovascularization | showed anti-angiogenic activity |  |
| acetyl-LYYDLISSPDIHGTYKE-amide (Ac-LYYDLISSPDIHGTYKE-NH2) [PEDF residues 88-104] | 5/6 | 5/5 |  |  |  |  |  |  |
